Measured values reported in paper PMC4912613, “A broad analysis of resistance development in the malaria parasite” (Nature Communications, 2016).
Read-outs that look alike come from different tables or passages of the source.

Legend:
[1] = system: MMV026596-selected cultures (parental line 3D7); assay: EC50 on cultures selected with MMV026596; assay type: cell-based, Plasmodium falciparum; details: hypersensitivity of cultures after 100 days of MMV026596 selection
Text: While we found an overall lack of pre-existing resistance, analysing the onset of resistance was critical, as compounds resulting in rapid resistance are not ideal for clinical development. We therefore sought to create drug-resistant parasites using a variety of different selection methods. We implemented either a high-dose method or a ramp-up/pulse method for our in vitro selections. Two of the 50 compounds—MMV028895 and MMV665824—were removed from the selection study during experimentation. […] Out of the remaining 48 compounds, resistant parasites were obtained for 23 (Supplementary Data 1). As each selection was performed in triplicate with three independent cultures, we succeeded in generating a total of 66 resistant cultures. Parasites resistant to MMV026596 were not obtained despite 100 days of selection, but the cultures acquired hypersensitivity to mefloquine with a 10-fold reduction in EC50 compared with its parental line, 3D7. For the remaining 24 compounds, acquisition of resistant parasites was unsuccessful despite numerous attempts over an extensive period of time.

P. falciparum [2] = system: P. falciparum; parameters: method as in PMID 26542470; details: known rate of action; cited from earlier work
[3] = system: TM90C2A (DHFR, folate pathway; compared with 3D7); assay: Cross-resistance EC50 assay, TM90C2A; assay type: cell-based; details: Plasmodium falciparum, 48 h, read-out: TM90C2A (3D7 Parent) Average EC50
Text: (§1) To evaluate potential overlapping activity against known antimalarial drug targets, we performed dose-response studies with each compound against our assembled set of drug-resistant lines and their corresponding parents, in an asexual blood stage proliferation assay (Table 1). Comparisons were made to the drug-sensitive strain 3D7 when a parent was unavailable (TM90C2A, W2 and Dd2). As laboratories conducted EC50 assays with different strains and protocols, all comparisons were made between assays from the same laboratory and under the same assay conditions. Compounds displaying >5-fold EC50 shifts relative to the parent or sensitive strain were flagged as having potentially non-novel targets. Average fold shifts per strain ranged from 0.82 to 2.34, with a median of 1.23 indicating there was not common resistance to any one resistant clone. No resistance patterns were observed when classifying the compounds based on chemical structure, but this was not surprising given the diversity of compounds chosen. On the other hand, given that these confirmed compounds were derived from larger unconfirmed hit lists to which some filtration criteria may have been applied (for example, elimination of obvious dihydrofolate reductase inhibitors[32]), some[10][11][12][13] pre-existing bias may exist in the set.
(§2) The 48-h assay was carried out in a 96-well format following standard methods using the ^3H-hypoxanthine incorporation assay. The raw EC50 values corresponding to this assay can be found in Supplementary Data 3. Briefly, this assay relies on the parasite incorporation of labelled hypoxanthine that is proportional to P. falciparum growth. A culture of parasitized RBCs (0.5% parasitemia with a percentage of ring stage higher than 70% of total parasitemia, 2.0% haematocrit) in RPMI-1640, […] and 5 μM hypoxanthine was exposed to drug serial dilutions. Plates were incubated for 24 h at 37 °C, 5% CO2, 5% O2 and 90% N2. After 24 h of incubation, ^3H-hypoxanthine was added and plates were incubated for an additional 24-h period. After that, parasites were harvested on a glass fibre filter using a TOMTEC Cell Harvester 96. Filters were dried and melt-on scintillator sheets were used to determine the incorporation of ^3H-hypoxanthine. Radioactivity was measured using a microbeta counter. Data were normalized using the incorporation of the positive (parasitized RBCs without drug) and negative (same culture with artesunate at 2 μM) controls. All assays were conducted in triplicate using three independently grown cultures, and EC50 values were determined using the XLfit add-in module for Excel (version 2.3.1) from Grafit (version 5.3.1.3), where parameter h is the assay hill slope, x is the compound concentration and y is the inhibition of growth effect. The XLfit equation is: […]
EC50 values for each strain were compared with those of the corresponding parent strain to determine fold-shift changes and identify resistance. To minimize the cause variance between assays, all comparisons were conducted between strains assayed under identical conditions. A one-way ANOVA followed by a Dunnet's post-test was conducted in GraphPad Prism to identify significant changes between the parent and resistant strain.

W2 = assay: Cross-resistance EC50 assay, W2 parent; assay type: cell-based, Plasmodium falciparum; details: Plasmodium falciparum, 48 h, read-out: W2F6 (PARENT) Average EC50
Text: (§3) Multidrug resistance alleles, including mutations in P. falciparum chloroquine resistance transporter (pfcrt) and P. falciparum multi-drug resistance transporter 1 (pfmdr1) are very common in field isolates. Therefore, we sought to assess the degree to which pre-existing resistance alleles would contribute to a loss of potency for this diverse collection of small molecule compounds. Fifteen clones derived from three main parent lines were chosen to maximize diversity in mutated pathways and genetic backgrounds, thus representing the variety of resistance seen in the field: 3D7 (ref. [23]), W2 (ref. [24]) or Dd2 (ref. [25]). The 3D7 line originates from the clone of a Netherlands clinical isolate strain[23][26] and is generally considered to be drug sensitive, though it does convey resistance to sulfadoxine. Conversely, W2 (ref. [24], [27]) and Dd2 (ref. [25]) are multi-drug-resistant lines originating from the Indochina III/CDC isolate, which contain point mutations in pfcrt as well as amplifications in pfmdr1 and GTP cyclohydrolase.
as §1, §2
(§4) Alternatively, a SYBR Green-based proliferation approach was used for the 72-h assay, as previously described. […]

3D7 = assay: Cross-resistance EC50 assay, 3D7 parent / sensitive strain; assay type: cell-based; details: Plasmodium falciparum, hypoxanthine 48-hour assay, synchronized parasites, 96-well format
Text: as §3, §1, §2, §4

[4] = system: P. berghei exoerythrocytic forms; assay: Liver-stage P. berghei hepatocyte invasion and development assay (luminescence, HepG2); assay type: cell-based, Plasmodium berghei; details: Plasmodium berghei, HepG2, text values; read-out: Liver stage EC50 (PfLuc EC50)
Text: (§5) As drugs that eliminate multiple stages of the parasite lifecycle will be critical components in global efforts to eliminate malaria, we were interested in knowing whether the compounds in our study had additional activities against either the liver and/or transmission stages of the parasite lifecycle. To determine this, we first evaluated the compounds in additional phenotypic assays. The first assay was a P. berghei hepatocyte invasion and development assay, which predicts causal prophylactic activity. Hepatocyte toxicity was additionally tested to identify false-positive activity in the liver stage due to host-cell toxicity. Assays were executed in duplicate using a 12-point EC50 curve at starting concentrations of 5 μM or 50 μM (Supplementary Table 1).
(§6) Liver-stage activity was determined by pretreating hepatic human cells (HepG2) for 2 h with compound in 1,536-well plates infected with freshly dissected P. berghei sporozoites. After 48 h of incubation, the viability of P. berghei exoerythrocytic forms was measured by luminescence reaction light output using BrightGlo (Promega). Varying levels of compound concentration were used (5 μM or 50 μM) due to the stock concentration supplied.

Hepatocyte toxicity = assay type: cell-based, human; details: human; read-out: HepG2 EC50 (hepatocyte toxicity)
Text: as §5, §6

[5] = system: Stage 5 gametocytes from P. falciparum NF54; assay: Late-stage (stage V) gametocyte survival assay, MitoTracker; assay type: cell-based, Plasmodium falciparum; details: Plasmodium falciparum; P. falciparum NF54, 72 h; read-out: Stage 5 Gametocyte EC50
Description: The second assay was a late-stage (stage V) gametocyte survival assay, which predicts transmission-blocking activity. […] Positive and negative control compounds included puromycin (0.61±0.11 μM) and atovaquone (> 12.50 μM), respectively.
To test sexual-stage activity, compounds were tested against late-stage gametocytes using a MitoTracker fluorescent-based assay. Specifically, synchronized stage V gametocytes were incubated with compound for 72 h. MitoTracker Red CMXRos (Life Technologies) was added to each well (final concentration: 500 nM) together with saponin to lyse the RBCs. Each plate was then imaged with an Operetta High Content Imaging System (Perkin Elmer) for fluorescence (590–640 nm). Varying levels of compound concentration were used (1.25 μM or 12.5 μM) due to the stock concentration supplied.
The gametocytocidal activity was measured using high-content image analysis software (Harmony, Perkin Elmer). The readout was based on number of metabolically active gametocytes per well.

P. falciparum [6] = assay: Rate of killing (parasite viability) assay; assay type: cell-based, Plasmodium falciparum; details: profile compared with chloroquine, pyrimethamine, atovaquone; 48 h treatment
Description: To identify whether selection success could be predicted by compound speed of action, and to gain a greater insight into the potential mechanisms of action, assays were performed to test the killing rate (Supplementary Data 1)[33]. To quantify the killing rate, viability time-course profiles for each compound were compared with antimalarials known to have fast (chloroquine), moderate (pyrimethamine) or slow (atovaquone) rate of action. These rates were then compared with other compound characteristics, including cross-resistance profile, selection success, potency and structural characteristics to identify any possible trends. […] One compound's rate of killing, MMV666080, was unidentifiable due to compound availability. No correlation was seen between compound structure and speed of action. Additionally, there was no correlation found between killing rate and compound potency against 3D7, nor between potency and selection success (Supplementary Fig. 2).
Rate of killing was determined for each compound following a previously described methodology, which uses the invasion of fresh erythrocytes as surrogate of parasite viability. Briefly, parasites were treated with compounds for 48 h. Compound was washed out and fresh-labelled erythrocytes added to the treated parasites. Double stained erythrocytes (RBC label plus parasite DNA label) were quantified and per cent of survival determined.

SMILES: OC(c1cc(C(F)(F)F)nc2c(C(F)(F)F)cccc12)C1CCCCN1 (stereo not drawn) [mefloquine]
- reduction in EC50 compared with parental line 3D7 [1]: 10 fold

SMILES: CCN(CC)CCCC(C)Nc1ccnc2cc(Cl)ccc12 (stereo not drawn) [chloroquine]
- rate of action of comparator antimalarials (P. falciparum [2]): fast

SMILES: COc1ccc(NC(=O)N2CCCCN3[C@H](CO)[C@H](c4ccc(C#Cc5ccccc5)cc4)[C@@H]3C2)cc1 [BRD3444]
- EC50 [3]: 37 nM
- EC50 (W2): 31 nM
- EC50 (3D7; strain 3D7 (parent), read-out: 3D7 (PARENT) Average EC50): 45 nM
- EC50 (3D7; strain 3D7-C9-WT (parent of PfATP4 Mut3), read-out: 3D7-C9-WT (PARENT) Average EC50): 35 nM

SMILES: COc1ccc(C[C@H](N)C(=O)N[C@H]2[C@@H](O)[C@H](n3cnc4c(N(C)C)ncnc43)O[C@@H]2CO)cc1 [puromycin, reference compound]
- EC50 [4]: 32.7 ± 29.7 nM
- EC50 (Hepatocyte toxicity): 254 ± 36.6 nM
- EC50 [5]: 610 ± 110 nM

SMILES: O=C1C(O)=C([C@H]2CC[C@H](c3ccc(Cl)cc3)CC2)C(=O)c2ccccc21 [atovaquone, reference compound]
- EC50 [4]: 0.419 ± 0.044 nM
- EC50 (Hepatocyte toxicity): 7720 ± 1370 nM
- EC50 [5]: > 12500 nM
- rate of action of comparator antimalarials (P. falciparum [2]): slow

SMILES: CCc1nc(N)nc(N)c1-c1ccc(Cl)cc1 [pyrimethamine]
- rate of action of comparator antimalarials (P. falciparum [2]): moderate

SMILES: Cn1c(C(=O)c2cccc3ccccc23)nc2ccccc21 [MMV665824]
- Killing Rate (P. falciparum [6]): ATQ (slow)
